Reference: article PMC8147177, “Bio-Insecticide of Thymus vulgaris and Ocimum basilicum Extract from Cell Suspensions and Their Inhibitory Effect against Serine, Cysteine, and Metalloproteinases of the Red Palm Weevil (Rhynchophorus ferrugineus)” (Insects, 2021)

System: metalloproteinase of R. ferrugineus midgut
Assay: Metalloproteinase specific activity assay (azocasein) in 4th instar midgut homogenate
Type: biochemical, Rhynchophorus ferrugineus
Settings: control 1.15
Method: The 4th midgut larvae (10 larvae) were pulled out gently, excised, washed with saline solution (0.9% NaCl) repeatedly to remove foodstuff and then homogenized in a 500 µL assay buffer. […] The homogenates were centrifuged at 5000× g for 30 min using the Sigma 3k30 cooling centrifuge. The supernatants were used for estimation of enzyme activity and protein concentration. […] The reaction was stopped with 300 µL of cold 10% trichloroacetic acid (TCA) and proceeded for 180 min at 37 °C. The reaction mixture was centrifuged at 5000× g for 20 min using the Sigma 3k30 cooling centrifuge, 10 µL of 10 N NaOH was added to the supernatant, and absorbance at 450 nm was measured using an ELISA plate reader. An assay mixture without an enzyme was used as the blank. […] Specific protease inhibitors were added to the reactions of proteolytic activity determination assays, and the inhibitors were: PMSF, a general serine proteinase inhibitor; […] The inhibition assay was carried out on a microplate assay as described above. A series of inhibitor concentrations was prepared in order to establish the maximum inhibition by each inhibitor. […] An assay mixture without inhibitors was used as control. Absorbance was measured using an ELISA plate reader at different nm according to the type of enzymes. Percent activity of the control for each inhibitor was calculated to each enzyme.

O=C([O-])CN(CCN(CC(=O)O)CC(=O)O)CC(=O)[O-].[Na+].[Na+] [EDTA, ethylenediaminetetraacetic acid disodium salt]
Specific activity, Metallo-Protease (inhibitor 0.1 mM): 0.89 ± 0.11 OD/mg protein min
Specific activity, Metallo-Protease (inhibitor 1 mM): 0.80 ± 0.11 OD/mg protein min
Specific activity, Metallo-Protease (inhibitor 10 mM): 0.68 ± 0.11 OD/mg protein min
Specific activity, Metallo-Protease (inhibitor 50 mM): 0.59 ± 0.1 OD/mg protein min
Specific activity, Metallo-Protease (inhibitor 100 mM): 0.42 ± 0.1 OD/mg protein min
